Test results: patent US8183395B2, “Compositions and methods for treating cancer” (Rutgers, The State University of New Jersey, priority 2007, dated 2012)

Legend:
Format in all cases: cell-based
[1] = test system: apoptosis competent W2 cells; test: Time-lapse microscopy of cell division and viability, W2 cells; parameters: sensitivity of W2 cells to apoptosis: dose or concentration left out as unconfirmed
Description: (§1) In order to determine the differential impact of apoptosis induction on cell growth and viability of W2 and D3 cells, cell division and viability was monitored via time-lapse microscopy. Cells were cultured in a time-lapse chamber equipped with controlled environmental conditions. The time-lapse microscopy system consisted of an Olympus IX71 inverted microscope fitted with temperature, humidity and CO2 controlled environmental chamber (Solent Scientific, UK) and a Coolsnap ES cooled
(§2) CCD camera. Image capturing and analysis were performed using Image-Pro Plus software (Media Cybernetics, USA). Phase contrast images (100×) at multiple fields were obtained for the indicated time period. Time-lapse images were converted to movies using Image-Pro Plus software with custom modifications and a graphic data processing workstation (Dell Precision 670).
(§3) W2 and D3 cells were incubated for 48 hours in the presence of Compound I […] (FIG. 3b).

[2] = test system: D3 (apoptosis defective) cells; test: Apoptosis induction screen, MTT cell viability, D3 cells; conditions: MTT assay, time 0 to 48 hours, Compound I 12 μM (FIG. 3a)
Source text: (§4) Pro-apoptotic Bax and Bak are the essential and redundant regulators of apoptosis required for suppressing tumor growth and chemotherapeutic response. Because D3 cells are genetically deleted for Bax and Bak, there is no means to restore apoptosis in these cells, yet all apoptosis regulatory mechanisms upstream (Bcl-2, Bcl-xL, Bim, Nbk/Bik, Puma, Noxa, caspase-3, caspase-7) remain intact. […] This feature permits the use of W2 and D3 cell lines in biological screening for compounds that promote apoptosis by the criteria of killing W2 and not D3 cells. Compounds that indiscriminately kill both apoptosis-competent W2 and apoptosis-defective D3 cells are eliminated as non-specifically toxic.
(§5) W2 and D3 cells were plated in 96 and 24-well plates and incubated for 24 hours after which they were evenly spread at about 50% confluency. At this time, compounds dissolved in DMSO and diluted in growth medium (DMEM) were added to the cells at various concentrations. […] Cell viability was determined using a modification of the MTT assay, where the reduction of yellow tertazolium salt (MTT-3-(4,5-Dimethylthiazol-2-yl)-2,5) to purple formazan indicates mitochondrial activity, and thus cell viability. […] After 30 minutes incubation at 37° C., with shaking, absorbance was read at 570 nm on a Spectra MAX 250 (Molecular Devices) plate reader. Differential growth from time 0 to 48 hours was calculated. […]

[3] = test system: W2 (apoptosis competent) cells; test: Apoptosis induction screen, MTT cell viability, W2 cells
Source text: as §4, §5

[4] = test system: apoptosis resistant D3 cells; test: Time-lapse microscopy of cell division and viability, D3 cells; parameters: dose or concentration left out as unconfirmed
Description: as §1, §2, §3

Row | SMILES | sensitivity of W2 cells to apoptosis ([1]; 48 hours) | time to induction of cell death of W2 cells (rounded and detached) ([1]; DMEM with 10% FBS, 5% CO2 at 37° C.) | growth of D3 [2] | death of W2 ([3]; MTT assay, time 0 to 48 hours, Compound I 12 μM (FIG. 3a)) | growth arrest in treated D3 cells [4] | survival of the D3 cells [4] | viability of D3 cells ([4]; at 48 hours, persisted following 72 hours) | apoptosis induction (positive control) ([3]; W2 and D3 cells, 0.1 μM staurosporine)
1 | C=C1CC/C=C(\C)CC[C@@H]2C(C(CC3OC3(C)C)OC(C)=O)=CO[C@H](OC(C)=O)[C@@H]12 (some centres unmarked) [Compound I, 9-deacetoxyxeniculin] | highly sensitive to apoptosis | 18 to 24 h | 61% | 50% | clear indication of growth arrest | at least 72 hours | retained their viability | 
2 | CN[C@@H]1C[C@H]2O[C@@](C)([C@@H]1OC)n1c3ccccc3c3c4c(c5c6ccccc6n2c5c31)C(=O)NC4 [staurosporine, reference compound] |  |  |  |  |  |  |  | induced apoptosis at comparable levels to Compound I
